Experiments:
[1] = system: sabA, hopZ, hpaA, alpA, alpB and babA genes; experiment: RT-PCR of genes involved in the adhesion of H. pylori; assay type: cell-based, Helicobacter pylori; conditions: 31.25-500 μg/ml
Description: In order to evaluate the effect of beta-caryophyllene against the adhesion function of H. pylori, changes in the expression of the genes sabA, hopZ, hpaA, alpA, alpB and babA involved in the adhesion of H. pylori were analyzed, and the results are shown in FIG. 8. Specifically, H. pylori was treated with beta-caryophyllene at concentrations of 31.25, 62.5, 125, 250 and 500 μg/ml, and the expression of the genes was analyzed by RT-PCR.

[2] = system: dnaA, dnaN, holB and polA genes; experiment: Expression of DNA synthesis-related genes of H. pylori; assay type: cell-based, Helicobacter pylori; conditions: 31.25-500 μg/ml
Description: DNA replication is essential for the proliferation of Helicobacter pylori, and RNA synthesis (transcription process) is a process essential for protein synthesis in organisms. Thus, unless normal RNA synthesis occurs, normal life activity cannot be maintained. Accordingly, in order to evaluate the inhibitory effect of beta-caryophyllene against the proliferation of H. pylori, H. pylori was treated with beta-caryophyllene at concentrations of 31.25, 62.5, 125, 250 and 500 μg/ml, and changes in the expression of the DNA synthesis-related genes dnaA, dnaN, holB and polA were analyzed, and the results are shown in FIG. 10.

H. pylori = experiment: Minimum growth inhibitory concentration test (absorbance at 650 nm after 72 hours); assay type: cell-based, Helicobacter pylori (ATCC 49503); conditions: Mueller Hinton broth with 10% bovine serum, absorbance 650 nm
Description: For H. pylori culture, an H. pylori (ATCC 49503) strain was inoculated on a Brucella agar medium containing 10% bovine serum and antibiotics (vancomycin, esfsuldin, trimethoprim, and amphotericin B), and cultured in an anaerobic incubator which maintains 10% CO2, 5% O2, 85% N2, and 97% or more humidity, at 37° C. for 72 hours. For a minimum growth inhibitory concentration test, each of 7.81, 15.63, 31.25, 62.5, 125, 250 and 500 μg and 1, 2 and 4 mg of beta-caryophyllene was added to a medium obtained by adding 10% bovine serum to Mueller Hinton broth, and then cultured in a CO2 incubator at a relative humidity of 100% for 72 hours. Each of the bacterial solutions cultured for 72 hours was measured for absorbance at 650 nm using a spectrophotometer to determine the minimum inhibitory concentration (MIC) of beta-caryophyllene, and the results are graphically shown in FIG. 2.

Helicobacter pylori = experiment: Immunohistochemical staining of gastric mucosa and submucosal layer with Helicobacter pylori-specific antibody; assay type: in vivo, Mongolian gerbils
Description: Mongolian gerbils were infected with a Helicobacter pylori strain (ATCC 49503) and then subjected to two weeks of acclimatization. To this end, the animals were fasted for 12 hours before and after inoculation with the Helicobacter pylori strain. 500 μl (1×10^9 CFU) of a bacterial suspension was prepared by suspending H. pylori in sterile physiological saline to a concentration of 2×10^9 CFU/ml and introduced directly into the stomach by using a feeding needle. For stable infection, the H. pylori strain was dispensed three times at 48 hour-intervals.
Beta-caryophyllene was administered directly into the gastrointestinal at doses of 100 mg/kg and 500 mg/kg for the low and high dose groups, respectively, for 12 weeks after two weeks after infection with H. pylori. The same amount of corn oil as the beta-caryophyllene was administered to each of the non-infected group and the infected group.
At weeks 0, 6 and 12 of the experiment, a paraffin block was prepared from with the stomach tissue of the infected animal model, and then stomach tissue slide sample with a thickness of 2 μm was prepared from the paraffin block using a microtome (Leica). For immunohistochemical staining, the slide was deparaffinized, heated with citrate buffer in a bath for 20 minutes, and then subjected to immunohistochemical staining using an IHC kit (Vectastain ABC kit, Vector). […]

[3] = system: cagA, vacA and secA genes; experiment: RT-PCR of cagA, vacA and secA gene expression; assay type: cell-based, Helicobacter pylori; conditions: 31.25, 62.5, 125, 250 and 500 μg/ml
Description: In addition, in order to examine changes in expression of cagA, vacA and secA genes, H. pylori was treated with beta-caryophyllene at concentrations of 31.25, 62.5, 125, 250 and 500 μg/ml, and then RT-PCR was performed.

urease A and urease B = experiment: Expression of urease protein in H. pylori; assay type: cell-based, Helicobacter pylori; conditions: 125, 250 and 500 μg/ml, all treatment concentrations
Description: In order to evaluate the effect of beta-caryophyllene treatment on the inhibition of H. pylori urease, H. pylori was treated with beta-caryophyllene at concentrations of 125, 250 and 500 μg/ml, and changes in the expression of urease protein were analyzed, and the results are shown in FIG. 7.

[4] = system: flhA, flaA, flaB and flgE genes; experiment: RT-PCR of flagella-associated genes of H. pylori; assay type: cell-based, Helicobacter pylori; conditions: 31.25-500 μg/ml
Description: In order to evaluate the effect of beta-caryophyllene treatment on the inhibition of flagella of H. pylori, changes in the expression of the flhA, flaA, flaB and flgE genes which constitute the flagella or are associated with the function of the flagella were examined, and the results are shown in FIG. 9. Specifically, H. pylori was treated with beta-caryophyllene at concentrations of 31.25, 62.5, 125, 250 and 500 μg/ml, and expression of the genes was analyzed by RT-PCR.

[5] = system: Helicobacter pylori-infected people; experiment: Human test, changes in digestive system symptoms; assay type: in vivo; conditions: 8 weeks
Description: In order to verify the anti-Helicobacter pylori effect of beta-caryophyllene, beta-caryophyllene was administered to 16 semi-healthy people (Helicobacter pylori-infected people) complaining of gastrointestinal disorders, at a dose of 126 mg/day once a day for 8 weeks before meals, and changes in digestive system symptoms (nausea, epigastric pain, heartburn, acid regurgitation, and indigestion) were evaluated, and the results are shown in Table 5.

[6] = 126 mg/day, after vs before intake

C=C1CC/C=C(\C)CC[C@@H]2[C@@H]1CC2(C)C [beta-caryophyllene]
expression of alpA gene [1]: decreased
expression of alpB gene [1]: decreased
expression of babA gene [1]: decreased
expression of dnaA gene [2]: increased
expression of dnaN gene [2]: significantly decreased
expression of holB gene [2]: significantly decreased
expression of polA gene [2]: increased
minimum inhibitory concentration (MIC) against H. pylori (H. pylori): 1 mg
Helicobacter pylori infection in gastric mucosa and submucosal layer (IHC) (Helicobacter pylori; week 6, low dose (100 mg/kg) and high dose (500 mg/kg) groups vs infected group): significantly decreased
Helicobacter pylori detection in gastric mucosa (IHC) (Helicobacter pylori; week 12, low dose (100 mg/kg) and high dose (500 mg/kg) groups vs infected group): hardly detected
transcription of other genes, including UDP-galactose 4-epimerase (control) [3]: did not affect
transcription of toxin protein gene cagA [3]: tended to be inhibited
transcription of toxin protein gene vacA [3]: tended to be inhibited
expression of urease A (Urease α) (urease A and urease B): significantly decreased
expression of urease B (Urease β) (urease A and urease B): significantly decreased
expression of flgE gene [4]: decreased
expression of flhA gene [4]: decreased
Nausea, After intake ([5]; 126 mg/day once a day, 16 people, before intake 0.19): 0.06
Acid regurgitation, After intake ([5]; 126 mg/day once a day, 16 people, before intake 0.25): 0.06
Indigestion, After intake ([5]; 126 mg/day once a day, 16 people, before intake 0.56): 0.13
Heartburn, After intake ([5]; 126 mg/day once a day, 16 people, before intake 0.88): 0.38
Epigastric pain, After intake ([5]; 126 mg/day once a day, 16 people, before intake 1.31): 0.44
Acid regurgitation, Improvement rate (%) [5, 6]: 76%
Epigastric pain, Improvement rate (%) [5, 6]: 66.4%
Heartburn, Improvement rate (%) [5, 6]: 56.8%
Indigestion, Improvement rate (%) [5, 6]: 76.8%
Nausea, Improvement rate (%) [5, 6]: 68.4%
improvement of Helicobacter pylori-induced gastrointestinal disorders ([5]; 126 mg/day, all five symptoms of Table 5): ≥ 56%

Source: patent US20220040123A1, “ANTI-HELICOBACTER FOOD COMPOSITION COMPRISING BETA-CARYOPHYLLENE” (priority 2018, published 2022)
